Assay results from the CheMixHub ionic liquid set.
± gives the uncertainty stated by the source.

Experiment: xn = mol fraction of the nth substance listed
Details: 101 kPa

CCCCCCCCCCCCCCCC[n+]1ccccc1.[Cl-] + C[C@H](N)C(=O)O + O
308.15 K
Details	electrical conductivity [S/m]
x2 = 0, x1 = 5.4e-07	0.000222 ± 2e-06
x2 = 0, x1 = 9e-07	0.00029 ± 3e-06
x2 = 0, x1 = 1.62e-06	0.0004 ± 4e-06
x2 = 0, x1 = 2.34e-06	0.000465 ± 5e-06
x2 = 0, x1 = 2.88e-06	0.000581 ± 6e-06
x2 = 0, x1 = 3.78e-06	0.000705 ± 7e-06
x2 = 0, x1 = 4.5e-06	0.000794 ± 8e-06
x2 = 0, x1 = 5.59e-06	0.000937 ± 9e-06
x2 = 0, x1 = 6.85e-06	0.00106 ± 1.1e-05
x2 = 0, x1 = 7.93e-06	0.001222 ± 1.2e-05
x2 = 0, x1 = 9.01e-06	0.001438 ± 1.4e-05
x2 = 0, x1 = 1.009e-05	0.00159 ± 1.6e-05
x2 = 0, x1 = 1.117e-05	0.001701 ± 1.7e-05
x2 = 0, x1 = 1.442e-05	0.00209 ± 2.1e-05
x2 = 0, x1 = 1.55e-05	0.00219 ± 2.2e-05
x2 = 0, x1 = 1.766e-05	0.00237 ± 2.4e-05
x2 = 0, x1 = 1.982e-05	0.00248 ± 2.5e-05
x2 = 0, x1 = 2.18e-05	0.00259 ± 2.6e-05
x2 = 0, x1 = 2.397e-05	0.00264 ± 2.6e-05
x2 = 0, x1 = 2.595e-05	0.00278 ± 2.8e-05
x2 = 0, x1 = 2.991e-05	0.00297 ± 3e-05
x2 = 0, x1 = 3.406e-05	0.00314 ± 3.1e-05
x2 = 0, x1 = 3.784e-05	0.00328 ± 3.3e-05
x2 = 0, x1 = 4.162e-05	0.00342 ± 3.4e-05
x2 = 0, x1 = 4.541e-05	0.00356 ± 3.6e-05
x2 = 0, x1 = 4.919e-05	0.00369 ± 3.7e-05
x2 = 0, x1 = 5.099e-05	0.00375 ± 3.8e-05
x2 = 0, x1 = 5.982e-05	0.00403 ± 4e-05
x2 = 0, x1 = 6.829e-05	0.00432 ± 4.3e-05
x2 = 0, x1 = 7.64e-05	0.00454 ± 4.5e-05
x2 = 0, x1 = 8.415e-05	0.00477 ± 4.8e-05
x2 = 0, x1 = 9.171e-05	0.00497 ± 5e-05
x2 = 0, x1 = 9.892e-05	0.00516 ± 5.2e-05
x2 = 0, x1 = 0.0001058	0.00533 ± 5.3e-05
x2 = 0, x1 = 0.0001124	0.0055 ± 5.5e-05
x2 = 0, x1 = 0.0001189	0.00565 ± 5.7e-05
x2 = 2.252e-05, x1 = 1.08e-06	0.000338 ± 3e-06
x2 = 2.252e-05, x1 = 2.34e-06	0.00063 ± 6e-06
x2 = 2.252e-05, x1 = 3.42e-06	0.000917 ± 9e-06
x2 = 2.252e-05, x1 = 4.69e-06	0.00119 ± 1.2e-05
x2 = 2.252e-05, x1 = 5.77e-06	0.00147 ± 1.5e-05
x2 = 2.252e-05, x1 = 6.85e-06	0.001711 ± 1.7e-05
x2 = 2.252e-05, x1 = 7.93e-06	0.001903 ± 1.9e-05
x2 = 2.252e-05, x1 = 9.19e-06	0.00208 ± 2.1e-05
x2 = 2.252e-05, x1 = 1.027e-05	0.00219 ± 2.2e-05
x2 = 2.252e-05, x1 = 1.135e-05	0.00241 ± 2.4e-05
x2 = 2.252e-05, x1 = 1.243e-05	0.00258 ± 2.6e-05
x2 = 2.252e-05, x1 = 1.352e-05	0.00273 ± 2.7e-05
x2 = 2.252e-05, x1 = 1.46e-05	0.00288 ± 2.9e-05
x2 = 2.252e-05, x1 = 1.568e-05	0.00298 ± 3e-05
x2 = 2.252e-05, x1 = 1.784e-05	0.00318 ± 3.2e-05
x2 = 2.252e-05, x1 = 2e-05	0.00331 ± 3.3e-05
x2 = 2.252e-05, x1 = 2.217e-05	0.00341 ± 3.4e-05
x2 = 2.252e-05, x1 = 2.433e-05	0.00351 ± 3.5e-05
x2 = 2.252e-05, x1 = 2.631e-05	0.00358 ± 3.6e-05
x2 = 2.252e-05, x1 = 3.046e-05	0.00382 ± 3.8e-05
x2 = 2.252e-05, x1 = 3.442e-05	0.00393 ± 3.9e-05
x2 = 2.252e-05, x1 = 3.838e-05	0.00411 ± 4.1e-05
x2 = 2.252e-05, x1 = 4.235e-05	0.00422 ± 4.2e-05
x2 = 2.252e-05, x1 = 4.613e-05	0.00439 ± 4.4e-05
x2 = 2.252e-05, x1 = 4.992e-05	0.00462 ± 4.6e-05
x2 = 2.252e-05, x1 = 5.172e-05	0.00468 ± 4.7e-05
x2 = 2.252e-05, x1 = 6.073e-05	0.00486 ± 4.9e-05
x2 = 2.252e-05, x1 = 6.938e-05	0.00502 ± 5e-05
x2 = 2.252e-05, x1 = 7.767e-05	0.00529 ± 5.3e-05
x2 = 2.252e-05, x1 = 8.542e-05	0.00541 ± 5.4e-05
x2 = 2.252e-05, x1 = 9.316e-05	0.00565 ± 5.7e-05
x2 = 2.252e-05, x1 = 0.0001004	0.00593 ± 5.9e-05
x2 = 2.252e-05, x1 = 0.0001074	0.00614 ± 6.1e-05
x2 = 2.252e-05, x1 = 0.0001142	0.00629 ± 6.3e-05
x2 = 2.252e-05, x1 = 0.0001207	0.00635 ± 6.4e-05
x2 = 0.0003926, x1 = 6.912e-05	0.0057 ± 5.7e-05
x2 = 0.0003926, x1 = 7.742e-05	0.00596 ± 6e-05
x2 = 0.0003927, x1 = 1.08e-06	0.000964 ± 1e-05
x2 = 0.0003927, x1 = 2.35e-06	0.00116 ± 1.2e-05
x2 = 0.0003927, x1 = 3.43e-06	0.00138 ± 1.4e-05
x2 = 0.0003927, x1 = 4.51e-06	0.001535 ± 1.5e-05
x2 = 0.0003927, x1 = 5.78e-06	0.00176 ± 1.8e-05
x2 = 0.0003927, x1 = 6.86e-06	0.001924 ± 1.9e-05
x2 = 0.0003927, x1 = 7.94e-06	0.00212 ± 2.1e-05
x2 = 0.0003927, x1 = 9.02e-06	0.00222 ± 2.2e-05
x2 = 0.0003927, x1 = 1.029e-05	0.0024 ± 2.4e-05
x2 = 0.0003927, x1 = 1.137e-05	0.00252 ± 2.5e-05
x2 = 0.0003927, x1 = 1.245e-05	0.00271 ± 2.7e-05
x2 = 0.0003927, x1 = 1.354e-05	0.00279 ± 2.8e-05
x2 = 0.0003927, x1 = 1.462e-05	0.00297 ± 3e-05
x2 = 0.0003927, x1 = 1.57e-05	0.00311 ± 3.1e-05
x2 = 0.0003927, x1 = 1.787e-05	0.0034 ± 3.4e-05
x2 = 0.0003927, x1 = 2.003e-05	0.0035 ± 3.5e-05
x2 = 0.0003927, x1 = 2.22e-05	0.00366 ± 3.7e-05
x2 = 0.0003927, x1 = 2.418e-05	0.00389 ± 3.9e-05
x2 = 0.0003927, x1 = 2.635e-05	0.00397 ± 4e-05
x2 = 0.0003927, x1 = 3.032e-05	0.00414 ± 4.1e-05
x2 = 0.0003927, x1 = 3.447e-05	0.00426 ± 4.3e-05
x2 = 0.0003927, x1 = 3.844e-05	0.00448 ± 4.5e-05
x2 = 0.0003927, x1 = 4.223e-05	0.00473 ± 4.7e-05
x2 = 0.0003927, x1 = 4.602e-05	0.00487 ± 4.9e-05
x2 = 0.0003927, x1 = 4.981e-05	0.00495 ± 5e-05
x2 = 0.0003927, x1 = 5.161e-05	0.00502 ± 5e-05
x2 = 0.0003927, x1 = 6.064e-05	0.00532 ± 5.3e-05

COC(=O)OC + CCCCCCCC[N+](C)(CCCCCCCC)CCCCCCCC.[Cl-]
x1 = 1
Details	electrical conductivity [S/m]	viscosity [mPa·s]
298.15 K	5.2e-05 ± 3e-06	0.58 ± 0.02
303.15 K	5.5e-05 ± 3e-06	–
308.15 K	4.9e-05 ± 3e-06	–
313.15 K	5.5e-05 ± 3e-06	0.45 ± 0.02
318.15 K	5.2e-05 ± 3e-06	0.4 ± 0.02
